Assay results taken from patent US11214594B2, “Antimicrobial peptide having synergistic antibacterial effect with antibiotics on multidrug resistant bacteria, and use thereof” (priority 2016, dated 2022).
≈ marks a conversion by molar mass, not a printed value. Where two headings read alike, the source gives them in different places. Where a SMILES comes first, the peptide text is derived from it.

Tests used:
MDRAB 12035 [1] = experiment: MIC of antibiotic during combined treatment with antimicrobial peptide; assay type: cell-based, Acinetobacter baumannii
In short: (§1)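 Broth microdilution in MH medium; strains were diluted to 2×10^6 CFU per ml before plating. Peptide was serially diluted stepwise at 2:1 starting from its MIC, and MH-diluted antibiotic was then added to determine MIC. The reversed arrangement was also tested.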

S. epidermidis = experiment: microbe, parasite or virus in culture; assay type: cell-based, Staphylococcus epidermidis
In short: (§2)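 Broth microdilution in MH medium: strains diluted to 2×10^6 CFU were mixed with equal volumes of twofold serial peptide dilutions in MH medium. MIC was taken as the lowest peptide concentration preventing bacterial growth.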

A. baumannii [2] = experiment: MIC of antimicrobial peptide during combined treatment with antibiotic; assay type: cell-based, Acinetobacter baumannii
In short: as §1

MDRAB 12035 [3] = experiment: as above; assay type: cell-based, Acinetobacter baumannii
In short: as §1

E. coli = assay type: cell-based, Escherichia coli; conditions: E. coli
In short: as §1

MDREC 1229 [4] = assay type: cell-based, Escherichia coli
In short: as §1

A. baumannii [5] = experiment: MIC of antibiotic during combined treatment with antimicrobial peptide; assay type: cell-based, Acinetobacter baumannii; conditions: for Antibiotic MIC, Erythromycin / Antibiotic MIC, Linezolid / Antibiotic MIC, Vancomycin: A. baumannii
In short: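 First, antibiotic solution is diluted with MH medium; next, the dilution is dispensed into wells containing peptide; finally, the orientation is swapped and MIC of each mixture determined.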

MDREC 1238 = assay type: cell-based, Escherichia coli
In short: as §2

P. aeruginosa = experiment: microbe, parasite or virus in culture; assay type: cell-based, Pseudomonas aeruginosa
In short: as §2

MDRST 8009 = assay type: cell-based, Salmonella typhimurium; conditions: agent alone
In short: as §2

MDREC 1229 [6] = experiment: MIC of antibiotic during combined treatment with antimicrobial peptide; assay type: cell-based, Escherichia coli
In short: as §1

MDRPA 2003 = assay type: cell-based, Pseudomonas aeruginosa
In short: as §2

MDRAB 12036 = assay type: cell-based, Acinetobacter baumannii
In short: as §2

[7] = peptide treatment concentration 1 μg/ml
[8] = peptide treatment concentration 2 μg/ml
[9] = peptide treatment concentration 4 μg/ml
[10] = peptide treatment concentration 6 μg/ml
[11] = peptide treatment concentration 8 μg/ml
[12] = peptide treatment concentration 16 μg/ml
[13] = peptide treatment concentration 32 μg/ml
[14] = peptide treatment concentration 64 μg/ml
[15] = erythromycin 4 μg/ml (Conc./MIC 1/8)
[16] = erythromycin 8 μg/ml (Conc./MIC 1/4)
[17] = erythromycin 16 μg/ml (Conc./MIC 1/2)
[18] = erythromycin 32 μg/ml (Conc./MIC 1)
[19] = vancomycin 512 μg/ml (Conc./MIC 1/2)
[20] = vancomycin 1024 μg/ml (Conc./MIC 1)
[21] = with Erythromycin […] (Conc./MIC 1)
[22] = combined with peptide at 1 μg/ml
[23] = combined with peptide at 2 μg/ml
[24] = combined with peptide at 4 μg/ml
[25] = combined with peptide at 6 μg/ml
[26] = combined with peptide at 8 μg/ml
[27] = combined with peptide at 16 μg/ml
[28] = combined with peptide at 32 μg/ml
[29] = combined with peptide at 64 μg/ml

## CC[C@H](C)[C@H](NC(=O)[C@H](CCCCN)NC(=O)[C@H](Cc1c[nH]c2ccccc12)NC(=O)[C@@H](N)CCCNC(=N)N)C(=O)N[C@@H](Cc1ccccc1)C(=O)N[C@@H](CCCCN)C(=O)N[C@@H](CCCCN)C(=O)N[C@H](C(=O)N1CCC[C@H]1C(=O)N[C@@H](CCCCN)C(=O)N[C@@H](CC(C)C)C(=O)N[C@@H](CC(C)C)C(=O)N[C@@H](Cc1c[nH]cn1)C(=O)N[C@@H](CO)C(=O)N[C@@H](C)C(=O)N[C@@H](CCCCN)C(=O)N[C@@H](CCCCN)C(=O)N[C@@H](Cc1c[nH]c2ccccc12)C(N)=O)[C@@H](C)CC [PapMA-9, RWK IFK KIP KLL HSA KKW-NH2] (H-RWKIFKKIPKLLHSAKKW-NH2; N-terminus assumed)
MDRAB 12035 [1]; [7]
  Erythromycin MIC during combined treatment with peptide: 16 µg/mL
  Linezolid MIC during combined treatment with peptide: >128 µg/mL
  Vancomycin MIC during combined treatment with peptide: >128 µg/mL
MDRAB 12035 [1]; [8]
  Erythromycin MIC during combined treatment with peptide: 16 µg/mL
  Linezolid MIC during combined treatment with peptide: 64 µg/mL
  Vancomycin MIC during combined treatment with peptide: 128 µg/mL
MDRAB 12035 [1]; [9]
  Erythromycin MIC during combined treatment with peptide: 4 µg/mL
  Linezolid MIC during combined treatment with peptide: 32 µg/mL
  Vancomycin MIC during combined treatment with peptide: 64 µg/mL
MDRAB 12035 [1]; [10]
  Erythromycin MIC during combined treatment with peptide: 0.5 µg/mL
  Linezolid MIC during combined treatment with peptide: 16 µg/mL
  Vancomycin MIC during combined treatment with peptide: 16 µg/mL
MDRAB 12035 [1]; [11]
  Erythromycin MIC during combined treatment with peptide: 0.25 µg/mL
  Linezolid MIC during combined treatment with peptide: 4 µg/mL
  Vancomycin MIC during combined treatment with peptide: 8 µg/mL
MDRAB 12035 [1]; [12]
  Erythromycin MIC during combined treatment with peptide: 0.25 µg/mL
  Linezolid MIC during combined treatment with peptide: 4 µg/mL
  Vancomycin MIC during combined treatment with peptide: 8 µg/mL
MDRAB 12035 [1]; [13]
  Erythromycin MIC during combined treatment with peptide: 0.125 µg/mL
  Linezolid MIC during combined treatment with peptide: 2 µg/mL
  Vancomycin MIC during combined treatment with peptide: 2 µg/mL
MDRAB 12035 [1]; [14]
  Erythromycin MIC during combined treatment with peptide: 0 µg/mL
  Linezolid MIC during combined treatment with peptide: 0 µg/mL
  Vancomycin MIC during combined treatment with peptide: 0 µg/mL
S. epidermidis
  Minimal inhibitory concentration MIC: >128 µg/mL
A. baumannii [2]; [15]
  Peptide MIC during treatment with antibiotic: 4 µg/mL
A. baumannii [2]; [16]
  Peptide MIC during treatment with antibiotic: 2 µg/mL
A. baumannii [2]; [17]
  Peptide MIC during treatment with antibiotic: 2 µg/mL
A. baumannii [2]; [18]
  Peptide MIC during treatment with antibiotic: 0 µg/mL
A. baumannii [2]; linezolid 32 μg/ml (Conc./MIC 1/8)
  Peptide MIC during treatment with antibiotic: 4 µg/mL
A. baumannii [2]; linezolid 64 μg/ml (Conc./MIC 1/4)
  Peptide MIC during treatment with antibiotic: 4 µg/mL
A. baumannii [2]; linezolid […] (Conc./MIC 1)
  Peptide MIC during treatment with antibiotic: 0 µg/mL
A. baumannii [2]; linezolid […] (Conc./MIC 1/2)
  Peptide MIC during treatment with antibiotic: 2 µg/mL
A. baumannii [2]; [19]
  Peptide MIC during treatment with antibiotic: 0.25 µg/mL
A. baumannii [2]; [20]
  Peptide MIC during treatment with antibiotic: 0 µg/mL
A. baumannii [2]; vancomycin […] (Conc./MIC 1/4)
  Peptide MIC during treatment with antibiotic: 0.5 µg/mL
A. baumannii [2]; vancomycin […] (Conc./MIC 1/8)
  Peptide MIC during treatment with antibiotic: 2 µg/mL
MDRAB 12035 [3]; [15]
  Peptide MIC during treatment with erythromycin: 4 µg/mL
MDRAB 12035 [3]; [16]
  Peptide MIC during treatment with erythromycin: 4 µg/mL
MDRAB 12035 [3]; [17]
  Peptide MIC during treatment with erythromycin: 1 µg/mL
MDRAB 12035 [3]; [18]
  Peptide MIC during treatment with erythromycin: 0 µg/mL
MDRAB 12035 [3]; linezolid 64 μg/ml (Conc./MIC 1/8)
  Peptide MIC during treatment with linezolid: 2 µg/mL
MDRAB 12035 [3]; linezolid 512 μg/ml (Conc./MIC 1)
  Peptide MIC during treatment with linezolid: 0 µg/mL
MDRAB 12035 [3]; linezolid […] (Conc./MIC 1/2)
  Peptide MIC during treatment with linezolid: 1 µg/mL
MDRAB 12035 [3]; linezolid […] (Conc./MIC 1/4)
  Peptide MIC during treatment with linezolid: 2 µg/mL
MDRAB 12035 [3]; [19]
  Peptide MIC during treatment with vancomycin: 1 µg/mL
MDRAB 12035 [3]; [20]
  Peptide MIC during treatment with vancomycin: 0.25 µg/mL
MDRAB 12035 [3]; vancomycin […] (Conc./MIC 1/4)
  Peptide MIC during treatment with vancomycin: 1 µg/mL
MDRAB 12035 [3]; vancomycin […] (Conc./MIC 1/8)
  Peptide MIC during treatment with vancomycin: 2 µg/mL
E. coli; [21]
  Peptide MIC: 0 µg/mL
E. coli; with Linezolid […] (Conc./MIC 1)
  Peptide MIC: 0 µg/mL
E. coli; with Vancomycin 1024 μg/ml (Conc./MIC 1)
  Peptide MIC: 0 µg/mL
MDREC 1229 [4]; [21]
  Peptide MIC: 0 µg/mL
MDREC 1229 [4]; with Linezolid 512 μg/ml (Conc./MIC 1)
  Peptide MIC: 0 µg/mL
A. baumannii [5]; A. baumannii and MDRAB 12035
  Synergistic effect of antibacterial activity with existing antibiotics compared with PapMA-1: higher level than the PapMA-1 peptide
A. baumannii [5]; [22]
  Antibiotic MIC, Erythromycin: 32 µg/mL
  Antibiotic MIC, Linezolid: >128 µg/mL
  Antibiotic MIC, Vancomycin: >128 µg/mL
A. baumannii [5]; [23]
  Antibiotic MIC, Erythromycin: 8 µg/mL
  Antibiotic MIC, Linezolid: 128 µg/mL
  Antibiotic MIC, Vancomycin: 128 µg/mL
A. baumannii [5]; [24]
  Antibiotic MIC, Erythromycin: 4 µg/mL
  Antibiotic MIC, Linezolid: 8 µg/mL
  Antibiotic MIC, Vancomycin: 32 µg/mL
A. baumannii [5]; [25]
  Antibiotic MIC, Erythromycin: 2 µg/mL
  Antibiotic MIC, Linezolid: 8 µg/mL
  Antibiotic MIC, Vancomycin: 16 µg/mL
A. baumannii [5]; [26]
  Antibiotic MIC, Erythromycin: 0.25 µg/mL
  Antibiotic MIC, Linezolid: 2 µg/mL
  Antibiotic MIC, Vancomycin: 8 µg/mL
A. baumannii [5]; [27]
  Antibiotic MIC, Erythromycin: 0.125 µg/mL
  Antibiotic MIC, Linezolid: 0.5 µg/mL
  Antibiotic MIC, Vancomycin: 2 µg/mL
A. baumannii [5]; [28]
  Antibiotic MIC, Erythromycin: 0 µg/mL
  Antibiotic MIC, Linezolid: 0 µg/mL
  Antibiotic MIC, Vancomycin: 0 µg/mL
A. baumannii [5]; [29]
  Antibiotic MIC, Erythromycin: 0 µg/mL
  Antibiotic MIC, Linezolid: 0 µg/mL
  Antibiotic MIC, Vancomycin: 0 µg/mL
MDREC 1238
  Minimal inhibitory concentration MIC: 64 µg/mL (≈ 27.7 µM)
P. aeruginosa
  Minimal inhibitory concentration MIC: 8 µg/mL (≈ 3.47 µM)
MDRST 8009
  Minimal inhibitory concentration MIC: 64 µg/mL (≈ 27.7 µM)
MDREC 1229 [6]; [7]
  Antibiotic MIC, Erythromycin: 64 µg/mL
  Antibiotic MIC, Linezolid: 128 µg/mL
  Antibiotic MIC, Vancomycin: >128 µg/mL
MDREC 1229 [6]; [8]
  Antibiotic MIC, Erythromycin: 64 µg/mL
  Antibiotic MIC, Linezolid: 64 µg/mL
  Antibiotic MIC, Vancomycin: >128 µg/mL
MDREC 1229 [6]; [9]
  Antibiotic MIC, Erythromycin: 8 µg/mL
  Antibiotic MIC, Linezolid: 32 µg/mL
  Antibiotic MIC, Vancomycin: 128 µg/mL
MDREC 1229 [6]; [10]
  Antibiotic MIC, Erythromycin: 2 µg/mL
  Antibiotic MIC, Linezolid: 16 µg/mL
  Antibiotic MIC, Vancomycin: 32 µg/mL
MDREC 1229 [6]; [11]
  Antibiotic MIC, Erythromycin: 1 µg/mL
  Antibiotic MIC, Linezolid: 8 µg/mL
  Antibiotic MIC, Vancomycin: 8 µg/mL
MDREC 1229 [6]; [12]
  Antibiotic MIC, Erythromycin: 0.5 µg/mL
  Antibiotic MIC, Linezolid: 4 µg/mL
  Antibiotic MIC, Vancomycin: 4 µg/mL
MDREC 1229 [6]; [13]
  Antibiotic MIC, Erythromycin: 0.125 µg/mL
  Antibiotic MIC, Linezolid: 2 µg/mL
  Antibiotic MIC, Vancomycin: 2 µg/mL
MDREC 1229 [6]; [14]
  Antibiotic MIC, Erythromycin: 0 µg/mL
  Antibiotic MIC, Linezolid: 0 µg/mL
  Antibiotic MIC, Vancomycin: 0 µg/mL
MDRPA 2003
  Minimal inhibitory concentration MIC: 16 µg/mL (≈ 6.94 µM)
MDRAB 12036
  Minimal inhibitory concentration MIC: 64 µg/mL (≈ 27.7 µM)
